± gives the standard deviation of the averaged measurements.
Assay: TIMS collisional cross section (CCS, N2) of the lipid ion; higher = larger ion cross section
Details: ionization mode: positive, one isomer drawn

SMILES	TIMS collisional cross section (sample type: HeLa)	TIMS collisional cross section (sample type: plasma)	TIMS collisional cross section (sample type: Liver)
CCCCC/C=C\C/C=C\C/C=C\C/C=C\CCCC(=O)O[C@H](COC(=O)CCCCCCC/C=C\CCCCCC)COP(=O)([O-])OCC[N+](C)(C)C [PC 16:1@_20:4] (ion (formula + adduct): [C44H78NO8P+H] 1+)	–	285.8 Å²	–
CC/C=C\C/C=C\C/C=C\C/C=C\C/C=C\CCCC(=O)O[C@H](COC(=O)CCCCCCC/C=C\CCCCCC)COP(=O)([O-])OCC[N+](C)(C)C [PC 16:1@_20:5] (ion (formula + adduct): [C44H76NO8P+H] 1+)	–	–	282.8 Å²
CCCCCCCC/C=C\CCCCCCCC(=O)O[C@H](COC(=O)/C=C\CCCCCCCCCCCCC)COP(=O)([O-])OCC[N+](C)(C)C [PC 16:1_18:1] (ion (formula + adduct): [C42H80NO8P+H] 1+)	286.6 Å²	–	–
CCCCC/C=C\C/C=C\C/C=C\C/C=C\CCCC(=O)O[C@H](COC(=O)CCCCCCC/C=C\CCCCCC)COP(=O)([O-])OCC[N+](C)(C)C [PC 16:1_20:4] (ion (formula + adduct): [C44H78NO8P+H] 1+)	285.8 Å²	286.4 Å²	–
CC/C=C\C/C=C\C/C=C\C/C=C\C/C=C\CCCC(=O)O[C@H](COC(=O)CCCCCCC/C=C\CCCCCC)COP(=O)([O-])OCC[N+](C)(C)C [PC 16:1_20:5] (ion (formula + adduct): [C44H76NO8P+H] 1+)	283.2 Å²	–	–
CC/C=C\C/C=C\C/C=C\C/C=C\C/C=C\C/C=C\CCC(=O)O[C@H](COC(=O)CCCCCCC/C=C\CCCCCC)COP(=O)([O-])OCC[N+](C)(C)C [PC 16:1_22:6@] (ion (formula + adduct): [C46H78NO8P+H] 1+)	288.4 Å²	–	289 Å²
CC/C=C\C/C=C\C/C=C\C/C=C\C/C=C\C/C=C\CCC(=O)O[C@H](COC(=O)CCCCCCC/C=C\CCCCCC)COP(=O)([O-])OCC[N+](C)(C)C [PC 16:1_22:6] (ion (formula + adduct): [C46H78NO8P+H] 1+)	–	–	288.5 Å²
CCCCCCCC/C=C\CCCCCCCC(=O)O[C@H](COC(=O)CCCCCCCCCCCCCCCC)COP(=O)([O-])OCC[N+](C)(C)C [PC 17:0@_18:1] (ion (formula + adduct): [C43H84NO8P+H] 1+)	291.8 Å²	–	–
CC/C=C\C/C=C\C/C=C\C/C=C\C/C=C\CCCC(=O)O[C@H](COC(=O)CCCCCCC/C=C\CCCCCCC)COP(=O)([O-])OCC[N+](C)(C)C [PC 17:1@_20:5] (ion (formula + adduct): [C45H78NO8P+H] 1+)	286.4 Å²	–	–
CCCCC/C=C\C=C/CCCCCCCCC(=O)O[C@H](COC(=O)CCCCCCCCCCCCCCCCC)COP(=O)([O-])OCC[N+](C)(C)C [PC 18:0@_18:2] (ion (formula + adduct): [C44H84NO8P+H] 1+)	–	292.6 Å²	–
CCCCC/C=C\C/C=C\C/C=C\C/C=C\CCCC(=O)O[C@H](COC(=O)CCCCCCCCCCCCCCCCC)COP(=O)([O-])OCC[N+](C)(C)C [PC 18:0@_20:4] (ion (formula + adduct): [C46H84NO8P+H] 1+)	–	296 Å²	–
CC/C=C\C/C=C\C/C=C\C/C=C\C/C=C\CCCC(=O)O[C@H](COC(=O)CCCCCCCCCCCCCCCCC)COP(=O)([O-])OCC[N+](C)(C)C [PC 18:0@_20:5] (ion (formula + adduct): [C46H82NO8P+H] 1+)	–	295.4 Å²	296.3 Å²
CCCCC/C=C\C/C=C\C/C=C\C/C=C\CCCCCC(=O)O[C@H](COC(=O)CCCCCCCCCCCCCCCCC)COP(=O)([O-])OCC[N+](C)(C)C [PC 18:0@_22:4] (ion (formula + adduct): [C48H88NO8P+H] 1+)	–	300.7 Å²	–
CCCCC/C=C\C/C=C\C/C=C\C/C=C\C/C=C\CCC(=O)O[C@H](COC(=O)CCCCCCCCCCCCCCCCC)COP(=O)([O-])OCC[N+](C)(C)C [PC 18:0@_22:5] (ion (formula + adduct): [C48H86NO8P+H] 1+)	298.9 Å²	299.3 ± 0.42 Å²	–
CCCCCC/C=C\CCCCCCCCCC(=O)O[C@H](COC(=O)CCCCCCCCCCCCCCCCC)COP(=O)([O-])OCC[N+](C)(C)C [PC 18:0_18:1] (ion (formula + adduct): [C44H86NO8P+H] 1+)	294.7 Å²	295.2 Å²	–
CCCCC/C=C\C=C/CCCCCCCCC(=O)O[C@H](COC(=O)CCCCCCCCCCCCCCCCC)COP(=O)([O-])OCC[N+](C)(C)C [PC 18:0_18:2] (ion (formula + adduct): [C44H84NO8P+H] 1+)	–	291.1 Å²	292.8 Å²
CCCCC/C=C\C/C=C\CCCCCCCCCC(=O)O[C@H](COC(=O)CCCCCCCCCCCCCCCCC)COP(=O)([O-])OCC[N+](C)(C)C [PC 18:0_20:2@] (ion (formula + adduct): [C46H88NO8P+H] 1+)	–	–	297.5 Å²
CCCCC/C=C\C/C=C\C/C=C\C/C=C\CCCC(=O)O[C@H](COC(=O)CCCCCCCCCCCCCCCCC)COP(=O)([O-])OCC[N+](C)(C)C [PC 18:0_20:4] (ion (formula + adduct): [C46H84NO8P+H] 1+)	296.2 Å²	–	295.6 Å²
CCCCC/C=C\C/C=C\C/C=C\C/C=C\C/C=C\CCC(=O)O[C@H](COC(=O)CCCCCCCCCCCCCCCCC)COP(=O)([O-])OCC[N+](C)(C)C [PC 18:0_22:5] (ion (formula + adduct): [C48H86NO8P+H] 1+)	–	301 Å²	299.3 Å²
CC/C=C\C/C=C\C/C=C\C/C=C\C/C=C\C/C=C\CCC(=O)O[C@H](COC(=O)CCCCCCCCCCCCCCCCC)COP(=O)([O-])OCC[N+](C)(C)C [PC 18:0_22:6] (ion (formula + adduct): [C48H84NO8P+H] 1+)	–	–	297.9 Å²
CC/C=C\C/C=C\C/C=C\C/C=C\CCCCC(=O)O[C@H](COC(=O)CCCCCCC/C=C\CCCCCCCC)COP(=O)([O-])OCC[N+](C)(C)C [PC 18:1@_18:4] (ion (formula + adduct): [C44H78NO8P+H] 1+)	289.4 Å²	–	–
CC/C=C\C/C=C\C/C=C\C/C=C\C/C=C\CCCC(=O)O[C@H](COC(=O)CCCCCCCCC/C=C\CCCCCC)COP(=O)([O-])OCC[N+](C)(C)C [PC 18:1@_20:5] (ion (formula + adduct): [C46H80NO8P+H] 1+)	290.2 Å²	–	290.9 Å²
CC/C=C\C/C=C\C/C=C\C/C=C\C/C=C\CCCCCC(=O)O[C@H](COC(=O)CCCCCCCCC/C=C\CCCCCC)COP(=O)([O-])OCC[N+](C)(C)C [PC 18:1@_22:5] (ion (formula + adduct): [C48H84NO8P+H] 1+)	–	–	297 Å²

Second part, the molecule after the results:

TIMS collisional cross section (sample type: HeLa)	TIMS collisional cross section (sample type: plasma)	TIMS collisional cross section (sample type: Liver)	SMILES
279.2 Å²	280.6 Å²	–	CCCCC/C=C\C/C=C\C/C=C\CCCCC(=O)O[C@H](COC(=O)CCCCCCC/C=C\CCCCCC)COP(=O)([O-])OCC[N+](C)(C)C [PC 16:1@_18:3] (ion (formula + adduct): [C42H76NO8P+H] 1+)
281.9 Å²	–	–	CCCCCC/C=C\CCCCCCCC(=O)OC[C@H](COP(=O)([O-])OCC[N+](C)(C)C)OC(=O)CCCCCCC/C=C\CCCCCCC [PC 16:1_17:1] (ion (formula + adduct): [C41H78NO8P+H] 1+)
281 Å²	–	–	CCCCC/C=C\C/C=C\CCCCCCCC(=O)O[C@H](COC(=O)CCCCCCC/C=C\CCCCCC)COP(=O)([O-])OCC[N+](C)(C)C [PC 16:1_18:2@] (ion (formula + adduct): [C42H78NO8P+H] 1+)
282.6 Å²	282.6 Å²	282.8 Å²	CCCCC/C=C\C/C=C\CCCCCCCC(=O)O[C@H](COC(=O)CCCCCCC/C=C\CCCCCC)COP(=O)([O-])OCC[N+](C)(C)C [PC 16:1_18:2] (ion (formula + adduct): [C42H78NO8P+H] 1+)
–	–	288.1 Å²	CCCCC/C=C\C/C=C\CCCCCCCC(=O)O[C@H](COC(=O)CCCCCCCCCCCCCCCC)COP(=O)([O-])OCC[N+](C)(C)C [PC 17:0@_18:2] (ion (formula + adduct): [C43H82NO8P+H] 1+)
–	292.4 Å²	–	CCCCC/C=C\C/C=C\C/C=C\C/C=C\CCCC(=O)O[C@H](COC(=O)CCCCCCCCCCCCCCCC)COP(=O)([O-])OCC[N+](C)(C)C [PC 17:0@_20:4] (ion (formula + adduct): [C45H82NO8P+H] 1+)
–	–	288.1 Å²	CCCCC/C=C\C/C=C\CCCCCCCC(=O)O[C@H](COC(=O)CCCCCCCCCCCCCCCC)COP(=O)([O-])OCC[N+](C)(C)C [PC 17:0_18:2] (ion (formula + adduct): [C43H82NO8P+H] 1+)
–	292.9 Å²	–	CCCCC/C=C\C/C=C\C/C=C\C/C=C\CCCC(=O)O[C@H](COC(=O)CCCCCCCCCCCCCCCC)COP(=O)([O-])OCC[N+](C)(C)C [PC 17:0_20:4] (ion (formula + adduct): [C45H82NO8P+H] 1+)
289.2 Å²	–	–	CCCCCCC/C=C\CCCCCCCC(=O)OC[C@H](COP(=O)([O-])OCC[N+](C)(C)C)OC(=O)CCCCCCC/C=C\CCCCCCCC [PC 17:1_18:1] (ion (formula + adduct): [C43H82NO8P+H] 1+)
–	–	285.6 Å²	CCCCC/C=C\C/C=C\CCCCCCCC(=O)O[C@H](COC(=O)CCCCCCC/C=C\CCCCCCC)COP(=O)([O-])OCC[N+](C)(C)C [PC 17:1_18:2] (ion (formula + adduct): [C43H80NO8P+H] 1+)
292.7 Å²	–	–	CCCCC/C=C\C/C=C\C/C=C\C/C=C\CCCC(=O)O[C@H](COC(=O)CCCCCCC/C=C\CCCCCCCC)COP(=O)([O-])OCC[N+](C)(C)C [PC 18:1@_20:4] (ion (formula + adduct): [C46H82NO8P+H] 1+)

From the supplement of paper PMC6965134
